Where “and” joins values, the source holds several entries; their conditions need not be identical. Identical values can stand only once. Inconclusive results and toxic doses are left out.
Tested on: B6C3F1 mice, intracerebral ependymoblastoma, median survival T/C
Assay: NCI In Vivo Anticancer Drug Screen. Data for tumor model Ependymoblastoma (intracerebral) in B6C3F1 mice
Conditions: endpoint: median survival time, higher = longer survival
Description: The antitumor activity of compounds was measured in mice bearing transplantable tumors. Survival or tumor size were measured and the results are expressed as the measurement made in the treated group (T) divided by the measurement made in the vehicle treated control group (C). The tumor model used in this assay is Ependymoblastoma (intracerebral) in B6C3F1 mice

[1] = dose: 0.5 mg/kg/injection, schedule: Q01DX005 (ip), vehicle: saline
[2] = dose: 1.0 mg/kg/injection, schedule: Q01DX005 (ip), vehicle: saline
[3] = dose: 2.0 mg/kg/injection, schedule: Q01DX005 (ip), vehicle: saline
[4] = dose: 4.0 mg/kg/injection, schedule: Q01DX005 (ip), vehicle: saline
[5] = dose: 8.0 mg/kg/injection, schedule: Q01DX005 (ip), vehicle: saline

For `COC1OC(CO)C(O)C(NC(=O)N(C)N=O)C1O` (centres undefined), the T/C [1] was 101 % of control, the T/C (dose: 1.0 mg/kg/injection, schedule: Q01DX005 (ip), vehicle: saline + alcohol) was 100 % of control and the T/C [2] was 103 % of control. The T/C (dose: 1.0 mg/kg/injection, schedule: Q## X004 (ip), vehicle: saline + alcohol) was 113 % of control, the T/C (dose: 1.0 mg/kg/injection, schedule: Q## X006 (ip), vehicle: saline + alcohol) was 116 % of control and the T/C (dose: 2.0 mg/kg/injection, schedule: Q01DX005 (ip), vehicle: saline + alcohol) was 109 % of control. The T/C [3] was 119 % of control, the T/C (dose: 2.0 mg/kg/injection, schedule: Q## X004 (ip), vehicle: saline + alcohol) was 115 % of control and the T/C (dose: 2.0 mg/kg/injection, schedule: Q#A X002 (ip), vehicle: saline + alcohol) was 107 % of control. For the same molecule, the T/C (dose: 4.0 mg/kg/injection, schedule: Q01DX001 (ip), vehicle: saline + alcohol) was 94 % of control and 100 % of control and 110 % of control, the T/C (dose: 4.0 mg/kg/injection, schedule: Q01DX005 (ip), vehicle: saline + alcohol) was 107 % of control and the T/C [4] was 108 % of control. The T/C (dose: 4.0 mg/kg/injection, schedule: Q01DX005 (oral), vehicle: saline + alcohol) was 115 % of control, the T/C (dose: 4.0 mg/kg/injection, schedule: Q## X004 (ip), vehicle: saline + alcohol) was 118 % of control and the T/C (dose: 4.0 mg/kg/injection, schedule: Q## X006 (ip), vehicle: saline + alcohol) was 113 % of control. The T/C (dose: 4.0 mg/kg/injection, schedule: Q#A X002 (ip), vehicle: saline + alcohol) was 97 % of control, the T/C (dose: 8.0 mg/kg/injection, schedule: Q01DX001 (ip), vehicle: saline + alcohol) was 97 % of control and 106 % of control and 113 % of control and the T/C [5] was 103 % of control. For the same molecule, the T/C (dose: 8.0 mg/kg/injection, schedule: Q01DX005 (oral), vehicle: saline + alcohol) was 113 % of control, the T/C (dose: 8.0 mg/kg/injection, schedule: Q## X004 (ip), vehicle: saline + alcohol) was 119 % of control and the T/C (dose: 8.0 mg/kg/injection, schedule: Q## X006 (ip), vehicle: saline + alcohol) was 118 % of control. For the same molecule, the T/C (dose: 8.0 mg/kg/injection, schedule: Q#A X002 (ip), vehicle: saline + alcohol) was 95 % of control, the T/C (dose: 16.0 mg/kg/injection, schedule: Q01DX001 (ip), vehicle: saline + alcohol) was 91 % of control and 112 % of control and 117 % of control and the T/C (dose: 16.0 mg/kg/injection, schedule: Q01DX001 (oral), vehicle: saline + alcohol) was 95 % of control and 108 % of control and 113 % of control. For the same molecule, the T/C (dose: 16.0 mg/kg/injection, schedule: Q01DX005 (ip), vehicle: saline + alcohol) was 121 % of control, the T/C (dose: 16.0 mg/kg/injection, schedule: Q01DX005 (oral), vehicle: saline + alcohol) was 101 % of control and the T/C (dose: 16.0 mg/kg/injection, schedule: Q#A X002 (ip), vehicle: saline + alcohol) was 109 % of control. For the same molecule, the T/C (dose: 32.0 mg/kg/injection, schedule: Q01DX001 (ip), vehicle: saline + alcohol) was 100 % of control and 103 % of control and 108 % of control, the T/C (dose: 32.0 mg/kg/injection, schedule: Q01DX001 (oral), vehicle: saline + alcohol) was 91 % of control and 95 % of control and 117 % of control and the T/C (dose: 32.0 mg/kg/injection, schedule: Q01DX005 (oral), vehicle: saline + alcohol) was 101 % of control. For the same molecule, the T/C (dose: 32.0 mg/kg/injection, schedule: Q#A X002 (ip), vehicle: saline + alcohol) was 100 % of control, the T/C (dose: 64.0 mg/kg/injection, schedule: Q01DX001 (ip), vehicle: saline + alcohol) was 103 % of control (2×) and 119 % of control and the T/C (dose: 64.0 mg/kg/injection, schedule: Q01DX001 (oral), vehicle: saline + alcohol) was 106 % of control and 107 % of control and 109 % of control. The T/C (dose: 128.0 mg/kg/injection, schedule: Q01DX001 (oral), vehicle: saline + alcohol) was 107 % of control and 112 % of control and 123 % of control and the T/C (dose: 256.0 mg/kg/injection, schedule: Q01DX001 (oral), vehicle: saline + alcohol) was 107 % of control and 119 % of control.
In the case of `CN(C)N=Nc1ccc(C(N)=O)cc1`, the T/C (dose: 16.0 mg/kg/injection, schedule: Q01DX005 (ip), vehicle: saline with Tween-80) was 156 % of control and the T/C (dose: 32.0 mg/kg/injection, schedule: Q01DX005 (ip), vehicle: saline with Tween-80) was 162 % of control.
For `CCN(CC)c1ccc2cc3ccc(=[N+](CC)CC)cc-3oc2c1`, the T/C [3] was 110 % of control, the T/C [4] was 90 % of control and the T/C [5] was 93 % of control.
For `O=P(NC12CC3CC(CC(C3)C1)C2)(N1CC1)N1CC1`, the T/C (dose: 2.25 mg/kg/injection, schedule: Q01DX005 (ip), vehicle: Klucel (hydroxypropylcellulose) (HPC)) was 108 % of control and 113 % of control, the T/C (dose: 4.5 mg/kg/injection, schedule: Q01DX005 (ip), vehicle: Klucel (hydroxypropylcellulose) (HPC)) was 111 % of control and 117 % of control and the T/C (dose: 9.0 mg/kg/injection, schedule: Q01DX005 (ip), vehicle: Klucel (hydroxypropylcellulose) (HPC)) was 123 % of control. The T/C (dose: 18.0 mg/kg/injection, schedule: Q01DX005 (ip), vehicle: Klucel (hydroxypropylcellulose) (HPC)) was 123 % of control.
In the case of `N[C@@H](Cc1ccc(N(CCCl)CCCl)cc1)C(=O)O`, the T/C (dose: 0.5 mg/kg/injection, schedule: Q01DX001 (ip), vehicle: saline) was 102 % of control, the T/C [1] was 93 % of control and the T/C (dose: 1.0 mg/kg/injection, schedule: Q01DX001 (ip), vehicle: saline) was 98 % of control and 102 % of control and 105 % of control. For the same molecule, the T/C [2] was 107 % of control, the T/C (dose: 2.0 mg/kg/injection, schedule: Q01DX001 (ip), vehicle: saline) was 102 % of control and 104 % of control and 110 % of control and the T/C [3] was 109 % of control. For the same molecule, the T/C (dose: 4.0 mg/kg/injection, schedule: Q01DX001 (ip), vehicle: saline) was 96 % of control and 103 % of control and 110 % of control and the T/C (dose: 8.0 mg/kg/injection, schedule: Q01DX001 (ip), vehicle: saline) was 103 % of control and 113 % of control and 117 % of control.
For `CN(C)C=O`, the T/C (dose: 50.0 mg/kg/injection, schedule: Q01DX005 (ip), vehicle: saline) was 92 % of control and 112 % of control, the T/C (dose: 100.0 mg/kg/injection, schedule: Q01DX005 (ip), vehicle: saline) was 96 % of control and 98 % of control and 115 % of control and the T/C (dose: 200.0 mg/kg/injection, schedule: Q01DX005 (ip), vehicle: saline) was 94 % of control and 99 % of control and 109 % of control. The T/C (dose: 400.0 mg/kg/injection, schedule: Q01DX005 (ip), vehicle: saline) was 94 % of control and 99 % of control and 113 % of control, the T/C (dose: 800.0 mg/kg/injection, schedule: Q01DX005 (ip), vehicle: saline) was 93 % of control and 102 % of control and 105 % of control and the T/C (dose: 1600.0 mg/kg/injection, schedule: Q01DX005 (ip), vehicle: saline) was 93 % of control. The T/C (dose: 2400.0 mg/kg/injection, schedule: Q01DX005 (ip), vehicle: saline) was 97 % of control.
For `NC(=O)c1csc(C2OC(CO)C(O)C2O)n1` (centres undefined), the T/C (dose: 9.38 mg/kg/injection, schedule: Q01DX009 (ip), vehicle: saline) was 96 % of control, the T/C (dose: 18.8 mg/kg/injection, schedule: Q01DX009 (ip), vehicle: saline) was 107 % of control and the T/C (dose: 37.5 mg/kg/injection, schedule: Q01DX005 (ip), vehicle: saline) was 93 % of control and 110 % of control. The T/C (dose: 37.5 mg/kg/injection, schedule: Q01DX009 (ip), vehicle: saline) was 99 % of control and 110 % of control, the T/C (dose: 75.0 mg/kg/injection, schedule: Q01DX005 (ip), vehicle: saline) was 101 % of control and 107 % of control and the T/C (dose: 75.0 mg/kg/injection, schedule: Q01DX009 (ip), vehicle: saline) was 112 % of control and 121 % of control. The T/C (dose: 150.0 mg/kg/injection, schedule: Q01DX005 (ip), vehicle: saline) was 113 % of control and 116 % of control, the T/C (dose: 150.0 mg/kg/injection, schedule: Q01DX009 (ip), vehicle: saline) was 110 % of control and 119 % of control and the T/C (dose: 300.0 mg/kg/injection, schedule: Q01DX005 (ip), vehicle: saline) was 108 % of control and 114 % of control. For the same molecule, the T/C (dose: 300.0 mg/kg/injection, schedule: Q01DX009 (ip), vehicle: saline) was 114 % of control, the T/C (dose: 600.0 mg/kg/injection, schedule: Q01DX005 (ip), vehicle: saline) was 101 % of control and 114 % of control and the T/C (dose: 600.0 mg/kg/injection, schedule: Q01DX009 (ip), vehicle: saline) was 123 % of control.
For `O=C(NC1CCCCC1)OCc1c(COC(=O)NC2CCCCC2)c(-c2ccc(Cl)c(Cl)c2)n2c1CCC2`, the T/C (dose: 50.0 mg/kg/injection, schedule: Q01DX005 (ip), vehicle: saline with Tween-80) was 99 % of control and 102 % of control, the T/C (dose: 100.0 mg/kg/injection, schedule: Q01DX005 (ip), vehicle: saline with Tween-80) was 92 % of control and 108 % of control and the T/C (dose: 200.0 mg/kg/injection, schedule: Q01DX005 (ip), vehicle: saline with Tween-80) was 104 % of control and 115 % of control. For the same molecule, the T/C (dose: 400.0 mg/kg/injection, schedule: Q01DX005 (ip), vehicle: saline with Tween-80) was 115 % of control and 118 % of control and the T/C (dose: 800.0 mg/kg/injection, schedule: Q01DX005 (ip), vehicle: saline with Tween-80) was 106 % of control and 110 % of control.
`CN1CC[C@]23c4c5ccc(O)c4O[C@H]2C(=O)CC[C@H]3[C@H]1C5` was tested, and the T/C (dose: 6.25 mg/kg/injection, schedule: Q01DX005 (iv), vehicle: saline) was 113 % of control, the T/C (dose: 12.5 mg/kg/injection, schedule: Q01DX005 (iv), vehicle: saline) was 114 % of control and the T/C (dose: 25.0 mg/kg/injection, schedule: Q01DX005 (iv), vehicle: saline) was 122 % of control.

— PubChem BioAssay AID226 (DTP/NCI, 2004)
